Results reported in patent US9597407B2, “Targeted antimicrobial moieties” (C3 Jian, Inc., priority 2009, dated 2017).
Entries after “also recorded” stand apart in the source; their conditions may differ.

Tested on: bacteria
Assay: Binding of targeting peptides to microorganisms (Table 3)
Conditions: microorganism bound by the targeting peptide; binding in aqueous buffers chosen by peptide solubility, preferably 1x PBS

| Substance | Target(s) |
| --- | --- |
| PF-309 (GIPGMTAAPAEENEQEENADEE; Peptide with targeting and/or antimicrobial activity) | S. mutans; also recorded: E. coli |
| PF-263 (NLKKCPC; Peptide with targeting and/or antimicrobial activity) | S. epidermidis; also recorded: M. luteus; also recorded: A. baumannii |
| PF-338 (KGTSCPDQLSKAIRQSI; Peptide with targeting and/or antimicrobial activity) | S. mutans |
| PF-242 (KLFEDPLIKSKAVENFQTTWHEQCLAKELAKNM; Peptide with targeting and/or antimicrobial activity) | S. mutans; also recorded: E. coli |
| PF-172 (LTGVRRPWRAPWAGTSGWALR; Peptide with targeting and/or antimicrobial activity) | S. epidermidis and M. luteus and E. coli and P. aeruginosa and MRSA and E. faecalis and C. jejuni |
| PF-218 (SETPEKPVGTFFYSIYYKIIL; Peptide with targeting and/or antimicrobial activity) | S. epidermidis; also recorded: M. luteus; also recorded: P. aeruginosa; also recorded: A. baumannii |
| PF-221 (VFDNIDINF; Peptide with targeting and/or antimicrobial activity) | S. epidermidis; also recorded: M. luteus; also recorded: P. aeruginosa |
| PF-240 (RITEVPPDEHSDR; Peptide with targeting and/or antimicrobial activity) | S. mutans; also recorded: E. coli |
| PF-177 (VTSEPGIAHDIRLLPRAAAFR; Peptide with targeting and/or antimicrobial activity) | M. luteus and MRSA and E. faecalis and C. jeikeium |
| PF-246 (QPDEKAEFFDPSLDKVYRHPTFYHIPDGIEHM; Peptide with targeting and/or antimicrobial activity) | S. mutans |
| PF-244 (HMRTISYLLAFAKFSLFIPPKQSLKRL; Peptide with targeting and/or antimicrobial activity) | S. epidermidis; also recorded: M. luteus; also recorded: P. aeruginosa; also recorded: A. baumannii |
| PF-236 (KEIRTATVAELNAKRRLTSAEQALAEVS; Peptide with targeting and/or antimicrobial activity) | S. mutans; also recorded: S. epidermidis; also recorded: E. coli; also recorded: C. albicans; also recorded: S. pneumoniae; also recorded: E. faecalis |
| PF-304 (LVKDTSDIKNDLNNIEIVTSKNSNDIAKLKSVK; Peptide with targeting and/or antimicrobial activity) | S. mutans |
| PF-245 (MNDVKPVVQPKQTLKAFLVQLLSVRAGVYIKQNNQLPKTKG; Peptide with targeting and/or antimicrobial activity) | S. epidermidis; also recorded: M. luteus; also recorded: P. aeruginosa; also recorded: A. baumannii |
| PF-284 (MRYITYSLIPRLLSKKVIHQQ; Peptide with targeting and/or antimicrobial activity) | C. difficile |

Same assay, conditions: microorganism the targeting peptide binds; binding in aqueous buffers that varied with peptide solubility, preferably 1x PBS

| Substance | Target(s) |
| --- | --- |
| PF-016 (RKQYDDLSFNFLY; Peptide with targeting and/or antimicrobial activity) | S. epidermidis; also recorded: E. faecalis; also recorded: C. jeikeium |
| 1T-207 (SPLEKYGTGSMTALTFLLGCCLLVLSKKSR; Peptide with targeting and/or antimicrobial activity) [Peptide 1T-207] | F. nucleatum; also recorded: S. sanguinis |
| 1T-259 (EKLKKILLKLAVCGKAWYTL; Peptide with targeting and/or antimicrobial activity) [Peptide 1T-259] | F. nucleatum; also recorded: P. gingivalis; also recorded: T. denticola; also recorded: S. mitis; also recorded: S. mutans; also recorded: S. oralis; also recorded: S. sanguinis |
| 1T-272 (QLAPIDKQLKAVKKIAFYESESTAAKAVTVA; Peptide with targeting and/or antimicrobial activity) [Peptide 1T-272] | F. nucleatum; also recorded: S. mutans; also recorded: S. oralis; also recorded: S. sanguinis |
| PF-S024 (SKRGRKRKDRRKKKANHGKRPNS; Peptide with targeting and/or antimicrobial activity) | Corynebacteria |
| 1T-239 (ADDLLNKRLTDLIMENAETVKTIDLDNSD; Peptide with targeting and/or antimicrobial activity) [Peptide 1T-239] | A. naeslundii; also recorded: S. gordonii; also recorded: S. mitis; also recorded: S. mutans; also recorded: S. oralis; also recorded: S. sanguinis |

Same assay, conditions: peptide binding in aqueous buffers that varied depending on peptide solubility; preferably 1x PBS

| Substance | Target(s) (microorganism bound by the targeting peptide) | Target(s) (microorganisms bound by the targeting peptide) |
| --- | --- | --- |
| PF-673 (VRRLRM; Peptide with targeting and/or antimicrobial activity) | S. mutans; also recorded: E. coli |  |
| PF-570 (KKFPTEESHIQAVLEFKKLTEHPSG; Peptide with targeting and/or antimicrobial activity) |  | S. pneumoniae; also recorded: C. jeikeium |
| PF-706 (LGYGAWIGCGLGLNGFHRID; Peptide with targeting and/or antimicrobial activity) | L. pneumophila |  |
| PF-727 (AYARCRHDYPFTLGQMQTH; Peptide with targeting and/or antimicrobial activity) | S. mutans; also recorded: E. coli |  |
| PF-C160 (AASGFTYCASNGVWHPY; Peptide with targeting and/or antimicrobial activity) | F. nucleatum |  |
| PF-709 (NKKHSPMD; Peptide with targeting and/or antimicrobial activity) | S. mutans |  |
| PF-491 (IHQYSSKPDIVGQEAKTVQQINS; Peptide with targeting and/or antimicrobial activity) |  | S. mutans; also recorded: E. coli |
| PF-490 (RLILVSGNATVQK; Peptide with targeting and/or antimicrobial activity) |  | S. mutans; also recorded: E. coli |
| PF-767 (DGKQGEPVALKPTDN; Peptide with targeting and/or antimicrobial activity) | S. epidermidis and M. luteus and E. coli and MRSA and S. pneumoniae and E. faecalis and C. jeikeium |  |
| PF-436 (KKHVLVGKQEKNG; Peptide with targeting and/or antimicrobial activity) |  | C. jeikeium |
| PF-C134 (NELMKYPATLTATATTPGIKYSHLCSVCL; Peptide with targeting and/or antimicrobial activity) | A. naeslundii; also recorded: F. nucleatum; also recorded: P. gingivalis; also recorded: S. mutans; also recorded: T. denticola |  |
| PF-787 (MTERQRRALLKQHPEVVSWSDYLEKRKRRTGTAG; Peptide with targeting and/or antimicrobial activity) | Mycobacteria spp. |  |

Same assay, conditions: peptide binding in aqueous buffers varied by peptide solubility; preferably 1x PBS

| Substance | Target(s) (microorganism bound by the targeting peptide) |
| --- | --- |
| 1T-123 (LVRRNAVAGRSDGLAGAEQLDLVRLQGVL; Peptide with targeting and/or antimicrobial activity) [Peptide 1T-123] | S. gordonii |
| 1T-122 (GAIPDPVTHRVDWEEDHQTRPSR; Peptide with targeting and/or antimicrobial activity) [Peptide 1T-122] | S. mitis |
| 1T-95 (GHLLRVGGRVGGVGGVAGACAQPFGGQ; Peptide with targeting and/or antimicrobial activity) [Peptide 1T-95] | S. gordonii; also recorded: S. mitis; also recorded: S. mutans; also recorded: S. oralis; also recorded: S. sanguinis |
| 1T-58 (CDDLHALERAGKLDALLSA; Peptide with targeting and/or antimicrobial activity) [Peptide 1T-58] | P. aeruginosa |
| 1T-84 (FRKKRYGLSILLWLNAFTNLVNSIHAFYMTLF; Peptide with targeting and/or antimicrobial activity) [Peptide 1T-84] | S. pneumoniae |
| 1T-109 (VTTNVRQGAGS; Peptide with targeting and/or antimicrobial activity) [Peptide 1T-109] | A. naeslundii; also recorded: S. epidermidis; also recorded: S. gordonii; also recorded: S. mitis; also recorded: S. mutans; also recorded: S. oralis; also recorded: S. salivarious; also recorded: S. sanguinis |
| 1T-57 (RLEYRRLETQVEENPESGRRPMRG; Peptide with targeting and/or antimicrobial activity) [Peptide 1T-57] | P. aeruginosa |
| 1T-6 (KFINGVLSQFVLERK; Peptide with targeting and/or antimicrobial activity) [Peptide 1T-6] | S. mutans |
| 1T-124 (LFDERNKIA; Peptide with targeting and/or antimicrobial activity) [Peptide 1T-124] | S. mitis; also recorded: S. mutans; also recorded: S. oralis |
| 1T-50 (HSDEPIPNILFKSDSVH; Peptide with targeting and/or antimicrobial activity) [Peptide 1T-50] | P. aeruginosa |
| 1T-41 (KRGSKIVIAIAVVLIVLAGVWVW; Peptide with targeting and/or antimicrobial activity) [Peptide 1T-41] | S. mutans; also recorded: S. aureus; also recorded: S. epidermidis; also recorded: C. jeikeium; also recorded: C. striatum; also recorded: P. aeruginosa |
| 1T-3 (VLGIAGGLDAYGELVGGN; Peptide with targeting and/or antimicrobial activity) [Peptide 1T-3] | S. mutans; also recorded: S. gordonii |
| 1T-52 (DEYPAKLPLSDKGATEPRRH; Peptide with targeting and/or antimicrobial activity) [Peptide 1T-52] | S. aureus; also recorded: C. xerosis; also recorded: P. aeruginosa |
